Inhibition data for 27 molecules are collected here from EP4745135A1 (Gluetacs Therapeutics (Shanghai) Co., Ltd., priority 2023, dated 2025).

The experiment concerns the target T1, human Cereblon WT GST-tagged protein (Homo sapiens, UniProt Q96SW2).
T1 construct: purchased CISBIO 64BDCRBNPEH
As to the kind of experiment: CRBN-binding affinity, HTRF (CEREBLON BINDING kit). To be noted: for inhibition at 0.5 µM: read-out: Inhibition Rate at 0.5 µM (%); for inhibition at 2 µM: read-out: Inhibition Rate at 2 µM (%). The method, then:
The CEREBLON BINDING kits (specification: 10,000 tests; product number: Catalog # 64BDCRBNPEH; CISBIO company) was used to determine the CRBN binding ability of the compounds to be tested through a HTRF method (homogeneous time-resolved fluorescence). The specific methods are as follows: • 1. […] Specifically, diluent #9 (1X) solution was used as the diluent, and multiple concentration gradients were set. […] Then, 2.5 µL of human Cereblon WT GST-tagged protein solution was added to each well. Finally, 5 µL of the thoroughly mixed Thalidomide-Re reagent and GST Eu antibody working solution were added to each of the aforementioned wells. […] The blank control wells were sequentially added with 2.5 µL of diluent #9 (1X) solution, 2.5 µL of PROTAC binding buffer, and 5 µL of thoroughly mixed Thalidomide-Re reagent and GST Eu antibody working solution. • 4.
For orientation: Time-resolved FRET reads energy transfer from a long-lived donor to a nearby acceptor.

T1 sequence (Q96SW2 whole entry): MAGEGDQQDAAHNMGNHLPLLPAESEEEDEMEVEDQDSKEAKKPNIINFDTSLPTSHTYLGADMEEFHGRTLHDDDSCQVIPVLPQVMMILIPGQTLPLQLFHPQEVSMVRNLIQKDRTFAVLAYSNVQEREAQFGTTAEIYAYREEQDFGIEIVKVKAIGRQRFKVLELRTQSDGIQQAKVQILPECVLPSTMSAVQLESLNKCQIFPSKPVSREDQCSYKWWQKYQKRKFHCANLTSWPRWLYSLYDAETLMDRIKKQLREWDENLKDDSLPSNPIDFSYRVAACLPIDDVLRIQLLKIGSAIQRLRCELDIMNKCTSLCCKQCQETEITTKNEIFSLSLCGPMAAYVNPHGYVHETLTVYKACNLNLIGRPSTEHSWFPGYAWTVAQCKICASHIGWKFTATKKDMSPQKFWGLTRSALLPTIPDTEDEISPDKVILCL

For orientation: inhibition means how much of the control response was suppressed. Take `O=C1CCC(N2Cc3c(CN4CCC(Nc5ccccc5-c5ccc(Cl)cc5)CC4)cccc3C2=S)C(=O)N1` (stereo not drawn) [GT-09034, 3-(4-((4-((4'-chloro-[1,1'-biphenyl]-2-yl)amino)piperidin-1-yl)methyl)-1-thioxoisoindolin-2-yl)piperidine-2,6-dione]: the inhibition at 0.5 µM fell in the range of 40 to 53% and the inhibition at 2 µM lay in the range of 60 to 80%.
In the same order, the values of `O=C1CCC(N2Cc3c(CN4CCN(c5nc6c(c(N7CCNCC7)n5)SCC6)CC4)cccc3C2=S)C(=O)N1` (stereo not drawn) [GT-09035, 3-(4-((4-(4-(piperazin-1-yl)-6,7-dihydrothieno[3,2-d]pyrimidin-2-yl)piperazin-1-yl)methyl)-1-thioxoisoindolin-2-yl)piperidine-2,6-dione] are 60 to 80% and 80 to 100%.
Consider `O=C1CCC(N2Cc3c(CN4CCN(c5nc(N6CCNCC6)c6sccc6n5)CC4)cccc3C2=S)C(=O)N1` (stereo not drawn) [GT-09036, 3-(4-((4-(4-(piperazin-1-yl)thieno[3,2-d]pyrimidin-2-yl)piperazin-1-yl)methyl)-1-thioxoisoindolin-2-yl)piperidine-2,6-dione], for which the inhibition at 0.5 µM is 60 to 80% and the inhibition at 2 µM was 80 to 100%.
On to `O=C1CCC(N2Cc3cc(CN4CCN(c5ccncc5Br)CC4)ccc3C2=S)C(=O)N1` (stereo not drawn) [GT-09236, 3-(5-((4-(3-bromopyridin-4-yl)piperazin-1-yl)methyl)-1-thioxoisoindolin-2-yl)piperidine-2,6-dione], for which the inhibition at 0.5 µM lay within 60 to 80% and the inhibition at 2 µM lay within 80 to 100%.
Turning to `O=C1CCC(N2Cc3cc(CN4CCN(c5ccncc5F)CC4)ccc3C2=S)C(=O)N1` (stereo not drawn) [GT-09237, 3-(5-((4-(3-fluoropyridin-4-yl)piperazin-1-yl)methyl)-1-thioxoisoindolin-2-yl)piperidine-2,6-dione], the inhibition at 0.5 µM was in the range of 60 to 80% and the inhibition at 2 µM is 80 to 100%.
Turning to `O=C1CCC(N2Cc3cc(CN4CCN(c5ccnc(Cl)c5F)CC4)ccc3C2=S)C(=O)N1` (stereo not drawn) [GT-09239, 3-(5-((4-(2-chloro-3-fluoropyridin-4-yl)piperazin-1-yl)methyl)-1-thioxoisoindolin-2-yl)piperidine-2,6-dione], the inhibition at 0.5 µM is 60 to 80% and the inhibition at 2 µM was in the range of 80 to 100%.
The corresponding values for `O=C1CCC(N2Cc3cc(CN4CCN(c5c(F)cncc5Cl)CC4)ccc3C2=S)C(=O)N1` (stereo not drawn) [GT-09243, 3-(5-((4-(3-chloro-5-fluoropyridin-4-yl)piperazin-1-yl)methyl)-1-thioxoisoindolin-2-yl)piperidine-2,6-dione] are 60 to 80% and 80 to 100%.
The corresponding values for `O=C1CCC(N2Cc3cc(CN4CCN(c5c(Cl)cncc5Cl)CC4)ccc3C2=S)C(=O)N1` (stereo not drawn) [GT-09246, 3-(5-((4-(3,5-dichloropyridin-4-yl)piperazin-1-yl)methyl)-1-thioxoisoindolin-2-yl)piperidine-2,6-dione] are 80 to 100% and 80 to 100%.
The corresponding values for `O=C1CCC(N2Cc3cc(CN4CCN(c5cc(Cl)nnc5Cl)CC4)ccc3C2=S)C(=O)N1` (stereo not drawn) [GT-09248, 3-(5-((4-(3,6-dichloropyridazin-4-yl)piperazin-1-yl)methyl)-1-thioxoisoindolin-2-yl)piperidine-2,6-dione] are 60 to 80% and 80 to 100%.
On to `O=C1CCC(N2Cc3cc(CN4CCN(c5ncncn5)CC4)ccc3C2=S)C(=O)N1` (stereo not drawn) [GT-09249, 3-(5-((4-(1,3,5-triazin-2-yl)piperazin-1-yl)methyl)-1-thioxoisoindolin-2-yl)piperidine-2,6-dione], for which the inhibition at 0.5 µM is 60 to 80% and the inhibition at 2 µM lay within 80 to 100%.
Consider `O=C1CCC(N2Cc3cc(CN4CCN(c5ccc(Cl)nn5)CC4)ccc3C2=S)C(=O)N1` (stereo not drawn) [GT-09251, 3-(5-((4-(6-chloropyridazin-3-yl)piperazin-1-yl)methyl)-1-thioxoisoindolin-2-yl)piperidine-2,6-dione], for which the inhibition at 0.5 µM was in the range of 60 to 80% and the inhibition at 2 µM lay within 80 to 100%.
With `O=C1CCC(N2Cc3cc(CN4CCN(c5cnccn5)CC4)ccc3C2=S)C(=O)N1` (stereo not drawn) [GT-09253, 3-(5-((4-(pyrazin-2-yl)piperazin-1-yl)methyl)-1-thioxoisoindolin-2-yl)piperidine-2,6-dione], the inhibition at 0.5 µM lay within 60 to 80% and the inhibition at 2 µM is 80 to 100%.
With `O=C1CCC(N2Cc3cc(CN4CCN(c5ncnc(Cl)c5Cl)CC4)ccc3C2=S)C(=O)N1` (stereo not drawn) [GT-09254, 3-(5-((4-(5,6-dichloropyrimidin-4-yl)piperazin-1-yl)methyl)-1-thioxoisoindolin-2-yl)piperidine-2,6-dione], the inhibition at 0.5 µM was 60 to 80% and the inhibition at 2 µM fell in the range of 80 to 100%.
`O=C1CCC(N2Cc3cc(CN4CCN(c5cnnc(Cl)c5Cl)CC4)ccc3C2=S)C(=O)N1` (stereo not drawn) [GT-09255, 3-(5-((4-(5,6-dichloropyridazin-4-yl)piperazin-1-yl)methyl)-1-thioxoisoindolin-2-yl)piperidine-2,6-dione]: the inhibition at 0.5 µM lay in the range of 80 to 100% and the inhibition at 2 µM was in the range of 80 to 100%.
For the molecule `O=C1CCC(N2Cc3cc(CN4CCC(c5ccon5)CC4)ccc3C2=S)C(=O)N1` (stereo not drawn) [GT-09256, 3-(5-((4-(isoxazol-3-yl)piperidin-1-yl)methyl)-1-thioxoisoindolin-2-yl)piperidine-2,6-dione], the inhibition at 0.5 µM is 60 to 80% and the inhibition at 2 µM fell in the range of 80 to 100%.
`O=C1CCC(N2Cc3cc(CN4CCN(c5noc6cc(F)ccc56)CC4)ccc3C2=S)C(=O)N1` (stereo not drawn) [GT-09257]: the inhibition at 0.5 µM was 60 to 80% and the inhibition at 2 µM lay within 80 to 100%.
In the same order, the values of `O=C1CCC(N2Cc3cc(CN4CCN(c5noc6ccncc56)CC4)ccc3C2=S)C(=O)N1` (stereo not drawn) [GT-09258, 3-(5-((4-(isoxazolo[4,5-c]pyridin-3-yl)piperazin-1-yl)methyl)-1-thioxoisoindolin-2-yl)piperidine-2,6-dione] are 60 to 80% and 80 to 100%.
As for `O=C1CCC(N2Cc3cc(CN4CCN(c5cccnn5)CC4)ccc3C2=S)C(=O)N1` (stereo not drawn) [GT-09265, 3-(5-((4-(pyridazin-3-yl)piperazin-1-yl)methyl)-1-thioxoisoindolin-2-yl)piperidine-2,6-dione], the inhibition at 0.5 µM was in the range of 60 to 80% and the inhibition at 2 µM lay in the range of 80 to 100%.
The corresponding values for `O=C1CCC(N2Cc3cc(CN4CCC(N5CCOc6cc(F)ccc65)CC4)ccc3C2=S)C(=O)N1` (stereo not drawn) [GT-09272, 3-(5-((4-(7-fluoro-2,3-dihydro-4H-benzo[b][1,4]oxazin-4-yl)piperidin-1-yl)methyl)-1-thioxoisoindolin-2-yl)piperidine-2,6-dione] are 60 to 80% and 80 to 100%.
Turning to `O=C1CCC(N2Cc3cc(CN4CCC(N5C(=O)COc6cc(F)ccc65)CC4)ccc3C2=S)C(=O)N1` (stereo not drawn) [GT-09273, 3-(5-((4-(7-fluoro-3-oxo-2,3-dihydro-4H-benzo[b][1,4]oxazin-4-yl)piperidin-1-yl)methyl)-1-thioxoisoindolin-2-yl)piperidine-2,6-dione], the inhibition at 0.5 µM is 60 to 80% and the inhibition at 2 µM lay in the range of 80 to 100%.
Regarding `O=C1CCC(N2Cc3cc(CN4CCC(c5cccc6cnccc56)CC4)ccc3C2=S)C(=O)N1` (stereo not drawn) [GT-09277, 3-(5-((4-(isoquinolin-5-yl)piperidin-1-yl)methyl)-1-thioxoisoindolin-2-yl)piperidine-2,6-dione], the inhibition at 0.5 µM lay in the range of 40 to 53% and the inhibition at 2 µM is 80 to 100%.
The corresponding values for `O=C1CCC(N2Cc3cc(CN4CC(c5ccnc6cc(F)ccc56)C4)ccc3C2=S)C(=O)N1` (stereo not drawn) [GT-09279, 3-(5-((3-(7-fluoroquinolin-4-yl)azetidin-1-yl)methyl)-1-thioxoisoindolin-2-yl)piperidine-2,6-dione] are 60 to 80% and 80 to 100%.
The corresponding values for `O=C1CCC(N2Cc3cc(CN4CCN(c5ncnc6sccc56)CC4)ccc3C2=S)C(=O)N1` (stereo not drawn) [GT-09280, 3-(5-((4-(thieno[2,3-d]pyrimidin-4-yl)piperazin-1-yl)methyl)-1-thioxoisoindolin-2-yl)piperidine-2,6-dione] are 80 to 100% and 80 to 100%.
The corresponding values for `Cc1cc2c(N3CCN(Cc4ccc5c(c4)CN(C4CCC(=O)NC4=O)C5=S)CC3)ncnc2s1` (stereo not drawn) [GT-09282, 3-(5-((4-(6-methylthieno[2,3-d]pyrimidin-4-yl)piperazin-1-yl)methyl)-1-thioxoisoindolin-2-yl)piperidine-2,6-dione] are 60 to 80% and 80 to 100%.
`CC(C)c1cc2c(N3CCN(Cc4ccc5c(c4)CN(C4CCC(=O)NC4=O)C5=S)CC3)ncnc2s1` (stereo not drawn) [GT-09284, 3-(5-((4-(6-isopropylthieno[2,3-d]pyrimidin-4-yl)piperazin-1-yl)methyl)-1-thioxoisoindolin-2-yl)piperidine-2,6-dione]: the inhibition at 0.5 µM lay in the range of 40 to 53% and the inhibition at 2 µM was in the range of 80 to 100%.
In the same order, the values of `Cc1sc2ncnc(N3CCN(Cc4ccc5c(c4)CN(C4CCC(=O)NC4=O)C5=S)CC3)c2c1C` (stereo not drawn) [GT-09285, 3-(5-((4-(5,6-dimethylthieno[2,3-d]pyrimidin-4-yl)piperazin-1-yl)methyl)-1-thioxoisoindolin-2-yl)piperidine-2,6-dione] are 80 to 100% and 80 to 100%.
The corresponding values for `Cc1sc2ncnc(N3CCCN(Cc4ccc5c(c4)CN(C4CCC(=O)NC4=O)C5=S)CC3)c2c1C` (stereo not drawn) [GT-09287, 3-(5-((4-(5,6-dimethylthieno[2,3-d]pyrimidin-4-yl)-1,4-diazepan-1-yl)methyl)-1-thioxoisoindolin-2-yl)piperidine-2,6-dione] are 80 to 100% and 80 to 100%.
